Data on eleven compounds can be found in US5324725A, “7-fused 2-(piperazinoalkyl) indole derivatives, intermediates and compositions thereof” (Kali-Chemie Pharma GmbH, priority 1991, dated 1994).

In assay [1] the test system is Passive cutaneous anaphylaxis (P.C.A.). Kind of assay: Inhibition of passive cutaneous anaphylaxis (P.C.A.). Conditions: Rattus norvegicus, 1 h; rats, 2 × 10^-5 mol/kg p.o., one hour before ovalbumin challenge. The format is in vivo, rat (Sprague-Dawley). How it is done:
(§1) 1. Determination of the inhibition of passive cutaneous anaphylaxis (P.C.A.) and of the anaphylactoid cutaneous reaction induced by histamine.
The P.C.A. reaction was carried out according to the methods described by Goose et al. (J.N. Immunology 16 (1969), 749) and by Martin et al (Arch. Pharmacol. 316 (1981), 186}.
The IgE-rich ovalbumin antiserum used in the test was obtained from immunized Brown-Norway rats. For immunization, the rats were given an i.p. injection of a mixture of 100 μg of ovalbumin with a Bordetella pertussis suspension (Vaxicoq®, Manufacturer: Institut Merieux, containing 5×10^9 organisms and 1.25 mg of Al(OH)3). After 20 days, the animals received a further i.p. injection of a solution of 10 μg of ovaIbumin in 0.5 ml of physiological saline solution for reimmunisation. After a further four days, the animals were bled, and the blood was centrifuged The antiserum obtained in this way was stored at -20° C. until use.
(§2) The determination of the inhibition of passive cutaneous anaphylaxis and the anaphylactoid cutaneous reaction induced by histamine was carried out as follows:
Sprague-Dawley rats having a body weight of 150-180 g were injected intradermally in one flank with 50 μl of a 1:75 dilution of the IgE-rich ovalbumin antiserum in physiological sodium chloride solution for passive sensitization to ovalbumin.
24 hours after sensitization a solution of 8.25 mg/kg of ovalbumin and 26.4 mg/kg of a blue dye (Evans' Blue) was administered i.v. to the rats according to Martin et al. to induce passive cutaneous anaphylaxis. The ovalbumin challenge caused a local anaphylactic reaction at the site at which the antiserum had been injected.
(§3) On the test days, the test substances were dissolved in distilled water which contained 1% by volume of dimethylformamide and 1% by volume of Tween®20 (polyoxyethylene(20) sorbitan monolaurate). One hour before the challenging ovalbumin administration, each animal received 2×10^-5 mol/kg of test substance administered orally in 0.5 ml of solution. A control group received only the solvent for comparison.
(§4) The oedematous anaphylactic (P.C.A.) and anaphylactoid (histamine-induced) reactions caused by the challenging i.v. ovalbumin injection, which are manifested by oedema formation, swelling and exudation of blue dye, were evaluated 30 minutes after challenge by the i.v. ovalbumin injection. This was done by visual determination of the extent to which the blue dye emerges at the sites of oedema formation. The percentage inhibition of anaphylactic and anaphylactoid reactions caused by the test substances was determined in comparison with the reactions of the control animals not treated with test substance with the aid of comparison scales.
(§5) The results obtained by the above test methods using compounds of the formula I are shown in the following Table A. The example numbers given for the compounds of formula I relate to the following preparation examples.

The subject of assay [2] is Histamine-induced anaphylactoid reactions. Kind of assay: Inhibition of anaphylactoid cutaneous reaction induced by histamine. The format is in vivo, rat (Sprague-Dawley). Conditions: Rattus norvegicus, 1 h; rats, 2 × 10^-5 mol/kg p.o., one hour before challenge; histamine intradermal. How it is done:
as §1, §2
To determine the histamine-induced anaphylactoid skin reaction, the animals were injected intradermally in the flank opposite to the antiserum administration with 50 μl of a physiological saline solution containing 0.8 mg/ml of histamine directly before the i.v. injection of the solution containing the ovalbumin and the blue dye.
as §3, §4, §5

A further assay deals with T1, histamine (H1) receptor (Cavia porcellus, UniProt P31389).
T1 construct: isolated smooth muscle of the guinea-pig ileum; from tissue; host or cells: isolated ileum segments of Dunkin Hartley guinea-pigs
Kind of assay: Antihistamine (H1) effect: inhibition of histamine-induced contractions of isolated guinea-pig ileum in vitro. Format: cell-based, guinea-pig (Dunkin Hartley). Conditions: histamine 5 × 10^-6 mol/l, test substance 10^-6 mol/l. How it is done:
3. Investigation of the antihistamine (H1) effect based on histamine (H1) receptor antagonism in vitro.
To investigate the histamine (H1) receptor antagonism of the substances, the inhibitory effect thereof on histamine-induced contractions of the smooth musculature of isolated organ was determined in vitro. Isolated strips of organ from the ileum were used. In an organ bath of physiological saline solution, they react to addition of histamine by contracting. Addition of the compounds of the invention decreases this histamine-induced contraction of the smooth musculature of the ileum strips. The extent of decrease of the contraction is an indication of the antihistamine (H1) activity of the compounds. The investigation is carried out analogously to the method originally described by Magnus (Pflugers Arch. 102, 123 (1904)).
Experimental description of the determination of the inhibitory effect on the contraction induced by a 5×10^-6 molar histamine concentration on isolated smooth muscle of the guinea-pig ileum.
For the test, 1.5 cm long segments of the ileum from Dunkin Hartley guinea-pigs having a body weight of 300-500 g were employed. Each strip was placed in an organ bath of 10 ml of Krebs-Henseleit physiological saline solution and attached to a customary apparatus for isotonically measuring changes in length of the ileum strip (automated Celaster measuring apparatus) so that the tissue is under a tension of 1 g. The bath was kept at a pH of 7.4 and aerated with a mixture of 5% CO2 and 95% O2. After an equilibration phase, an isotonic contraction of the tissue was produced by adding histamine in a final concentration of 5×10^-6 mol/l and was washed out again after a contact time of 30 seconds. Only those tissues in which three reproducible contractions were obtained at 10 minute intervals were used in the subsequent test. The test substances were then added in a final concentration of 10^-6 mol/l, and after a contact time of 30 seconds histamine was again added up to a concentration of 5×10^-6 mol/l. The contractions which occurred were measured over the course of 30 seconds. The tissue was then washed several times over a period of 10 minutes. A contraction challenge was then induced again by addition of histamine. The contractions which occurred were again measured over 30 seconds. The difference between the amplitude of the contraction obtained by histamine addition alone and the amplitude of the contraction obtained in the presence of the test substance was determined and calculated as % inhibition.
The inhibitory effects on the contractions induced by histamine 30 seconds after administration of the test substance and on the contractions induced by addition of histamine 10 minutes afterward are given in the table.

Assay [3] deals with P.A.F.-induced aggregation of platelets from rabbit blood. Put plainly: Anti-P.A.F. effect in vitro: inhibition of P.A.F.-induced platelet aggregation. Format: cell-based, rabbit (New Zealand hybrids). Conditions: test substance concentration 10^-5 mol/l; for inhibition at 10 µM: Oryctolagus cuniculus, Platelet. The source says: 4. Determination of anti-P.A.F. effect in vitro.
Platelet-activating factor (P.A.F.) is a phospholipid mediator which has several effects. The activation of platelet aggregation leads to the induction of protracted broncho contractions and hyperreactivity of the airways.
The effects of the test substances on platelet aggregation induced by adding P.A.F. to a platelet suspension obtained from rabbit blood was investigated by the method described by Mikashima et al. (Jap. J. Pharmacol. 44 (1987) 387-391).
A suspension of platelets originating from rabbit blood was used which contained 4×10^9 platelets/ml in a modified Tyrode buffer solution adjusted to pH 7.4. Tyrode solution is an aqueous solution containing 136.9 mmol of NaCl, 2.68 mmol of KCl, 2.31 mmol of CaCl2, 1.0 mmol of MgCl2, 11.9 mmol of NaHCO3, 1.45 mmol of NaH2 PO4 and 5.55 mmol of glucose per liter. This solution was modified by adding 1.3 mM/l of CaCl2 and 2.5 g/l of gelatin. The platelets were obtained from 10 ml blood samples from each of three rabbits (New Zealand hybrids, body weight 3-4 kg). For this, the blood samples were treated with ethylenediaminetetraacetic acid and washed by the method of Artley et al. (Brit. J. Hamatol. 19 (1970), 7-17). A platelet-rich plasma was then initially separated by centrifugation (20 minutes at 400×g). The platelets were separated from the plasma by centrifuging again for 15 minutes at 1400×g. After centrifuging, the platelets remaining as a sediment were resuspended in a calcium-free Tyrode buffer solution. 0.4 mmol of lysine acetylsalicylate were then added and after 15 minutes the blood platelets were sedimented again. The sediment was resuspended in the abovementioned modified Tyrode buffer solution, and the number of platelets in the resulting suspension was adjusted to the desired content.
A 40×10^-9 molar P.A.F. solution was used as the reagent. This solution was prepared from a 1.8×10^-3 molar stock solution in chloroform. For this, a 10μl sample of the stock solution was evaporated to dryness and redissolved in 180 μl of the modified Tyrode solution, to which 0.25% of dilapidated bovine serum albumin had been added. 10^-5 molar working solutions were then prepared from this and stored frozen. Samples of these solutions were appropriately diluted for the tests.
To carry out the tests, 50 μl of the platelet solution and 10 μl of a 40×10^-5 molar solution of the compound to be investigated were added to 330 μl of the modified Tyrode buffer solution with stirring (1000 rpm) in an aggregation tube provided with a small magnetic stirrer. This corresponds to a final test substance concentration of 10^-5 mol/l. After a preincubation time of 90seconds, 10 μl of the P.A.F. preparation were added. The aggregation occurring in the aggregation tubes was measured for 4-5 minutes using a computerized aggregometer.
The aggregation occurring in the test tubes containing only platelet suspension was rated as 0%. The aggregation occurring in test tubes containing platelet suspension and P.A.F. preparation was rated as 100%. The aggregation which still occurred in the presence of the test substances (i.e. during inhibition of the P.A.F.-induced platelet aggregation increase) was measured, and the resulting aggregation inhibition is calculated from this in %.

[4] abbreviates: after 30 sec., read-out: in vitro (H1) receptor antagonism % inhibitory effect on histamine-induced contractions of the Ileum, after 30 sec.
[5] abbreviates: after 10 min. (after washing), read-out: in vitro (H1) receptor antagonism % inhibitory effect on histamine-induced contractions of the Ileum, after 10 min.

The structures appear in SMILES notation. Read-outs that look alike come from different tables or passages of the source.

T1 sequence (P31389 whole entry): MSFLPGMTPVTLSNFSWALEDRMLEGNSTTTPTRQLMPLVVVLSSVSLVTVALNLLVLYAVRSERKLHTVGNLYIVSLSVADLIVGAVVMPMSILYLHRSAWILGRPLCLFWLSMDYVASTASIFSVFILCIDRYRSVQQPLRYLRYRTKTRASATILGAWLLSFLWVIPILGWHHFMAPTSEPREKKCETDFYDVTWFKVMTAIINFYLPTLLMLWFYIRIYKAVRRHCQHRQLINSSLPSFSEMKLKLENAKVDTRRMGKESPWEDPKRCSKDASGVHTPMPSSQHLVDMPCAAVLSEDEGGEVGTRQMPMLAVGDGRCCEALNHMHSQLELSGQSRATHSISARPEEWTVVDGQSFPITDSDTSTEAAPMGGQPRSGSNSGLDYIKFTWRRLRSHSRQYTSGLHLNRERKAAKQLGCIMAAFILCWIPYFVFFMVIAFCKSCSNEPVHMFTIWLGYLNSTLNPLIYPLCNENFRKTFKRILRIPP

As a reminder, the inhibition in vivo is the drop in the measured response relative to a control, in per cent. A low value points to little suppression. Turning to `Cc1ccnc(N2CCN(CCCc3c(C)n4c5c(cccc35)CCC4)CC2)c1` [Example 17, 5,6-dihydro-2-methyl-1-{3-[4-(4-methylpyridin-2-yl)piperazin-1-yl]-propyl}-4H-pyrrolo[3,2,1-ij]quinoline], the inhibition in vivo at 20 µmol/kg in assay [1] turned out to be 45%; in assay [2], 25%.

In the case of `Cc1ccnc(N2CCN(CCc3c(C)n4c5c(cccc35)CCC4CO)CC2)c1` (stereo not drawn) [Example 18, 5,6-Dihydro-4-hydroxymethyl-2-methyl-1-{2-[4-(4-methylpyridin-2-yl)piperazin-1-yl]ethyl}-4H-pyrrolo[3,2,1-ij]-quinoline], the inhibition in vivo at 20 µmol/kg in assay [1] amounted to 90%; in assay [2], 80%. Besides, the inhibition at 1 µM at histamine (H1) receptor (setting [4]) was 29%; at histamine (H1) receptor (setting [5]), 72%.

`Cc1ccnc(N2CCN(CCc3c(C)n4c5c(cccc35)[S+]([O-])CC4)CC2)c1` (stereo not drawn) [Example 28a, 2,3-Dihydro-5-methyl-6-{2-[4-(4-methylpyridin-2-yl)-piperazin-1-yl]ethyl}-pyrrolo[1,2,3-de]-1,4-benzothiazine-1-oxide]: the inhibition in vivo at 20 µmol/kg worked out at 100% in assay [1] and 90% in assay [2]. Also, the inhibition at 1 µM worked out at 25% at histamine (H1) receptor (setting [4]) and 24% on histamine (H1) receptor (setting [5]).

Regarding `CNc1cc2c3c(c1)c(CCN1CCN(c4cc(C)ccn4)CC1)c(C)n3CCC2` [Example 29, 5,6-Dihydro-2-methyl-8-methylamino-1-{2-[4-(4-methylpyridin-2-yl)piperazin-1-yl]ethyl}-4H-pyrrolo[3,2,1-ij]quinoline], the “in vitro (H1) receptor antagonism % inhibitory effect on histamine-induced contractions of the Ileum, after 30 sec.” value at histamine (H1) receptor (after 30 sec.) turned out to be 7%. In addition, on histamine (H1) receptor (after 10 min. (after washing)), the “in vitro (H1) receptor antagonism % inhibitory effect on histamine-induced contractions of the Ileum, after 10 min.” value worked out at 30%.

For the compound `Cc1ccnc(N2CCN(CCc3c(C)n4c5c(cccc35)CCCC4)CC2)c1` [Example 31, 4,5,6,7-tetrahydro-2-methyl-1-{2-[4-(4-methylpyridin-2-yl)piperazin-1-yl]ethyl}-pyrrolo[3,2,1-jk]benzazepine], the inhibition at 1 µM at histamine (H1) receptor (setting [4]) was 31%; at histamine (H1) receptor (setting [5]) it was 89%. Further, the inhibition at 10 µM in assay [3] was 95%.

The compound `Cc1ccnc(N2CCN(CCc3c(Cc4ccccc4)n4c5c(cccc35)CCC4)CC2)c1` [Example 32, 2-Benzyl-5,6-dihydro-1-{2-[4-(4-methylpyridin-2-yl)-piperazin-1-yl]ethyl}-4H-pyrrolo[3,2,1-ij]quinoline] displayed an inhibition at 10 µM in assay [3] of 100%.

Regarding `CSc1cc2c3c(c1)c(CCN1CCN(c4cc(C)ccn4)CC1)c(C)n3CCS2` [Example 78], the inhibition at 1 µM at histamine (H1) receptor (setting [4]) came out at 12%; at histamine (H1) receptor (setting [5]) it was 92%. In assay [3], this compound had an inhibition at 10 µM of 98%.

In assay [3], `Cc1ccc(-c2c(CCN3CCN(c4cc(C)ccn4)CC3)c3cccc4c3n2CCC4)cc1` [Example 86] displayed an inhibition at 10 µM of 100%.

As for `Cc1ccc(N2CCN(CCc3c(C)n4c5c(cc(C(=O)C(C)C)cc35)CCC4)CC2)nc1` [Example 95], the inhibition at 1 µM at histamine (H1) receptor (setting [4]) came to 10%; on histamine (H1) receptor (setting [5]), 71%.

Consider `COc1ccc(-c2c(CCN3CCN(c4cc(C)ccn4)CC3)c3cccc4c3n2CCC4)cc1` [Example 96], for which the “% inhibition of the P.A.F.-induced aggregation of platelets from rabbit blood” value in assay [3] amounted to 98%.

On to `Cc1ccnc(N2CCN(CCc3c(-c4ccc(O)cc4)n4c5c(cccc35)CCC4)CC2)c1` [Example 97], for which, in assay [3], the “% inhibition of the P.A.F.-induced aggregation of platelets from rabbit blood” value is recorded as 99%.
